Data published in US11135320B2, “Radioligands for pretargeted pet imaging and methods of their therapeutic use” (priority 2015, dated 2021).

Key:
[1] = pretargeting, 24 h interval; Zeglis 2013; cited from earlier work
[2] = tested on: subcutaneous SW1222 xenografts; assay: Pretargeted PET imaging, control experiments; assay type: in vivo, athymic nude mice
Method: Due to its pharmacokinetic profile, ^64Cu-Tz-SarAr was selected for in vivo pretargeting experiments. To this end, athymic nude mice bearing A33 antigen-expressing SW1222 human colorectal carcinoma tumors were first injected with huA33-TCO (100 μg). After a 24 h interval during which huA33-TCO accumulated at the tumor and cleared from the blood, the mice were injected with ^64Cu-Tz-SarAr (400-450 μCi). The specific activity of the radiotracer was adjusted using cold ^natCu-Tz-SarAr such that the molar ratio of Tz-SarAr:huA33-TCO≈1:1. […] At 1 h post-injection, the activity concentration in the tumor (5.63±0.67% ID/g) was the highest of all tissues surveyed, while the blood (4.2±0.8% ID/g) and kidneys (3.1±0.3% ID/g) were the healthy organs with the highest background activity concentrations. […]
All pretargeted PET imaging experiments were performed on an Inveon PET/CT scanner (Siemens Healthcare Global). […] Static scans were recorded at various time points after injection with a minimum of 30 million coincident events (10-30 min total scan time). […] Activity concentrations (percentage of dose per gram of tissue [% ID/g]) and maximum intensity projections were determined by conversion of the counting rates from the reconstructed images. All of the resulting PET images were analyzed using ASIPro VM™ software. […]

[3] = In vivo stability of ^64Cu-Tz-SarAr (intact fraction in blood); set-up: species or system athymic nude mice
Method: Healthy athymic nude mice were injected with ^64Cu-Tz-SarAr (300-350 μCi) via intravenous tail vein injection. After 15 min, 1 h, or 4 h, the mice were sacrificed via CO2 asphyxiation, and their blood (500 μL) was collected via cardiac puncture in heparinized 1.7 mL microcentrifuge tubes. These tubes were then centrifuged at 10,000 rpm for 10 minutes to separate plasma from red-blood cells. After 10 minutes, the plasma supernatant was then transferred to a new 1.7 mL microcentrifuge tube and placed on ice. Subsequently, 500 μL of ice-cold CH3CN was added to the plasma to precipitate the proteins, and the tubes were vortexed briefly and centrifuged again for 10 min at 10,000 rpm. After this centrifugation, the supernatant was carefully removed and transferred to another 1.7 mL microcentrifuge tube, in which it was subjected to another round of centrifugation at 10,000 rpm for 10 min. After this final centrifugation, the supernatant was again transferred to a clean 1.7 mL microcentrifuge tube. This solution was then analyzed via radio-TLC methods using reverse-phase C18 TLC plates and a mobile phase of 1:1 CH3CN:water (each with 0.1% TFA). Using this method, any free ^64Cu^2+ will remain at the baseline, while ^64Cu-Tz-SarAr and other metabolites will travel up the TLC plate. The fraction of intact ^64Cu-Tz-SarAr was calculated by dividing the integral of the parent compound peak over the integral of the entire radio-TLC chromatogram. All experiments were performed in triplicate.

O=C([O-])CN1CCN(CC(=O)[O-])CC(Cc2ccc(NC(=O)CCCC(=O)NCc3ccc(-c4nncnn4)cc3)cc2)N(CC(=O)[O-])CC1.[64Cu+2] (stereo not shown) [^64Cu-Tz-NOTA]
Adrenals absorbed dose [1]: 0.0251 rad/mCi | Bladder Wall absorbed dose [1]: 0.0262 rad/mCi | Brain absorbed dose [1]: 0.0236 rad/mCi | Breasts absorbed dose [1]: 0.0209 rad/mCi | Effective Dose [1]: 0.046 rem/mCi | Gallbladder Wall absorbed dose [1]: 0.0272 rad/mCi | Heart Wall absorbed dose [1]: 0.0294 rad/mCi | Kidneys absorbed dose [1]: 0.0315 rad/mCi | Liver absorbed dose [1]: 0.0311 rad/mCi | Lower Lg. Int. Wall absorbed dose [1]: 0.166 rad/mCi | Lungs absorbed dose [1]: 0.0289 rad/mCi | Muscle absorbed dose [1]: 0.0138 rad/mCi | Osteogenic Cells absorbed dose [1]: 0.0852 rad/mCi | Ovaries absorbed dose [1]: 0.0299 rad/mCi | Pancreas absorbed dose [1]: 0.0258 rad/mCi | Red Marrow absorbed dose [1]: 0.0530 rad/mCi | Skin absorbed dose [1]: 0.0194 rad/mCi | Small Intestine absorbed dose [1]: 0.033 rad/mCi | Spleen absorbed dose [1]: 0.0180 rad/mCi | Stomach Wall absorbed dose [1]: 0.0267 rad/mCi | Testes absorbed dose [1]: 0.0225 rad/mCi | Thymus absorbed dose [1]: 0.0227 rad/mCi | Thyroid absorbed dose [1]: 0.0228 rad/mCi | Total Body absorbed dose [1]: 0.0272 rad/mCi | Upper Lg. Int. Wall absorbed dose [1]: 0.114 rad/mCi | Uterus absorbed dose [1]: 0.0277 rad/mCi

NC12CNCCNCC(NCc3ccc(CNC(=O)CCCC(=O)NCc4ccc(-c5nncnn5)cc4)cc3)(CNCCNC1)CNCCNC2.[64Cu+2] [^64Cu-Tz-SarAr]
uptake by the tumor (control PET imaging) ([2]; ^64Cu-Tz-SarAr alone, no antibody): less than 0.5 % ID/g | uptake by the tumor (control PET imaging) ([2]; ^64Cu-Tz-SarAr with unmodified huA33): less than 0.5 % ID/g | % Intact in blood ([3]; 15 min post-injection): 96.8±0.8% | % Intact in blood ([3]; 1 h post-injection): 82.0±3.3% | % Intact in blood ([3]; 4 h post-injection): 29.0±5.9%
